The text below walks through data of PubChem BioAssay AID624129 (Sanford-Burnham Center for Chemical Genomics, 2012).

What all share (experiment): CXCR6 receptor antagonists, dose response, cell-based, beta-arrestin, DiscoveRx, APJ panel, uHTS hits (AID 624129)
The target of test [1] is Apelin receptor (Homo sapiens) (UniProt P35414). Conditions: CXCR6 beta-arrestin (DiscoveRx) antagonist cell assay, APJ.
Test [2] concerns the target Beta-galactosidase (Escherichia coli) (UniProt Q8VNN2). Conditions: CXCR6 beta-arrestin (DiscoveRx) antagonist cell assay, b-galactosidase.
Test [3] addresses C-C chemokine receptor type 6 (Homo sapiens) (UniProt P51684). Conditions: CXCR6 beta-arrestin (DiscoveRx) antagonist cell assay.
Test [4] has as its target C-X-C chemokine receptor type 6 (Homo sapiens) (UniProt O00574). Conditions: CXCR6 beta-arrestin (DiscoveRx) antagonist cell assay; for inhibition: CXCR6, run 1, dose range 2, at 80 µM (top of the series).
Where [5] appears, read: dose range 1, mean IC50 across replicates.
Where [6] appears, read: CCR6, dose range 1, mean IC50 across replicates.
The mark [7] stands for this setting: CXCR6, dose range 1, mean IC50 across replicates.

Activity calls are given as the source filed them. The rule behind the calls is not given here.

Chain of C-X-C chemokine receptor type 6 (Homo sapiens) (O00574 whole entry, looked up): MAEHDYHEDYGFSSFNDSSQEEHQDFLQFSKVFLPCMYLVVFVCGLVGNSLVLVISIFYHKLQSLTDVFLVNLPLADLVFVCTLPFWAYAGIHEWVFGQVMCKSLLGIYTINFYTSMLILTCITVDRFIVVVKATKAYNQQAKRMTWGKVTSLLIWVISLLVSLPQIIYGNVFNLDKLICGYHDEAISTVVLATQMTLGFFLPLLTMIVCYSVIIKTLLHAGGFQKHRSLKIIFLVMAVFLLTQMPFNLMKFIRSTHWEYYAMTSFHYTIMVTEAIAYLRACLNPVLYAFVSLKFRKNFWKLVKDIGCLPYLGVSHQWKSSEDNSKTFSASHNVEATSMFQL
Chain of Beta-galactosidase (Escherichia coli) (Q8VNN2 whole entry, looked up): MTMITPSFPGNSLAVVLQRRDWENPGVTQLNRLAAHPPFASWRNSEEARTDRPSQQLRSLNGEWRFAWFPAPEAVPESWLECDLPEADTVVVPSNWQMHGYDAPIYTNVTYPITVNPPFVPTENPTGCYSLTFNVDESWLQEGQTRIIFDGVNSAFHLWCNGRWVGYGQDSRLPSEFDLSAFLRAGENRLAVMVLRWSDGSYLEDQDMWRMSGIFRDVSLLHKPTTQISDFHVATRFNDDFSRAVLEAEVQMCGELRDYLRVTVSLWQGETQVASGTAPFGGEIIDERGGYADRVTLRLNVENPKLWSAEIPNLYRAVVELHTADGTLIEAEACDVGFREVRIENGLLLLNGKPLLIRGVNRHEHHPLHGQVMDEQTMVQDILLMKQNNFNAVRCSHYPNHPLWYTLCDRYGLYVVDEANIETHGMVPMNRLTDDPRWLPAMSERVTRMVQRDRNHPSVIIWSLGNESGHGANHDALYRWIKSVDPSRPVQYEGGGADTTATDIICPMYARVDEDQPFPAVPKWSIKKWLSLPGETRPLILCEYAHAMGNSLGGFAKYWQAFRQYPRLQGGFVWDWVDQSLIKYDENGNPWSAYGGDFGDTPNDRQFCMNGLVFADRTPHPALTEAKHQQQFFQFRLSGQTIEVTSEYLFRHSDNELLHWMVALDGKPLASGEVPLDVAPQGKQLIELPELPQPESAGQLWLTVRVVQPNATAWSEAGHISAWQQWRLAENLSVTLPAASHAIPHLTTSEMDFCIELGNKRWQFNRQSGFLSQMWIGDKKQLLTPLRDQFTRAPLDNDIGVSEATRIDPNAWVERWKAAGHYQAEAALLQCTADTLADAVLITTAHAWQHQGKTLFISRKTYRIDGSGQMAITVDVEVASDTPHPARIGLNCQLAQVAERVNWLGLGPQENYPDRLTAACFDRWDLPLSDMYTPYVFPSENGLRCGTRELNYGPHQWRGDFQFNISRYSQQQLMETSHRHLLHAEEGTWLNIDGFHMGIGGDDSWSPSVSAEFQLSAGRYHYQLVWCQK

Turning to `COC(=O)c1ccc2c(c1)C(C)(C)C(/C=C/c1ccccc1O)=[N+]2C`, the IC50 in test [1] (dose range 1) is 16.2 µM; in test [1] (setting [5]) it was 15.9 µM; in test [1] (run 2, dose range 1), 14.1 µM; in test [1] (run 3, dose range 1) it was 17.3 µM; in test [2] (dose range 1) it was 24.2 µM; in test [2] (setting [5]), 24.2 µM. Also, the IC50 in test [3] (CCR6, dose range 1) was 10.3 µM; in test [3] (setting [6]), 11.3 µM; in test [3] (CCR6, run 2, dose range 1), 12.3 µM; in test [4] (setting [7]), 11.7 µM; in test [4] (CXCR6, run 1, dose range 2), 8.94 µM; in test [4] (CXCR6, run 2, dose range 1) it was 13.5 µM. The IC50 in test [4] (CXCR6, run 2, dose range 2) turned out to be 9.88 µM. For the same molecule, in test [4] (CXCR6, dose range 1), the IC50 result was “inactive”.
As for `O=[N+]([O-])c1c(NCCCO)cc(Sc2ccc(Cl)cc2)c2nonc12`, the IC50 is > 80 µM (inactive) in test [1] (dose range 1); more than 80 µM in test [1] (setting [5]); more than 80 µM in test [1] (run 2, dose range 1); more than 80 µM in test [1] (run 3, dose range 1); > 80 µM (inactive) in test [2] (dose range 1); more than 80 µM in test [2] (setting [5]). For the same molecule, the IC50 is 2.58 µM in test [3] (CCR6, dose range 1); 12.9 µM in test [3] (setting [6]); 23.2 µM in test [3] (CCR6, run 2, dose range 1); 11.3 µM in test [4] (setting [7]); 3.9 µM in test [4] (CXCR6, run 1, dose range 2); more than 80 µM in test [4] (CXCR6, run 2, dose range 1). Also, in test [4] (CXCR6, run 2, dose range 2), the half-inhibitory concentration (IC50) was determined as 3.24 µM. Further, the IC50 result in test [4] (CXCR6, dose range 1) is “inactive”.
As to `CN(c1ccccc1)S(=O)(=O)c1ccc(NC(=O)c2nc(S(C)(=O)=O)ncc2Cl)cc1`, the half-inhibitory concentration (IC50) was 7.36 µM in test [1] (dose range 1); 7.72 µM in test [1] (setting [5]); 7.88 µM in test [1] (run 2, dose range 1); 7.91 µM in test [1] (run 3, dose range 1); > 80 µM (inactive) in test [2] (dose range 1); more than 80 µM in test [2] (setting [5]). The concentration for half-maximal inhibition (IC50) is 6.25 µM in test [3] (CCR6, dose range 1); 5.69 µM in test [3] (setting [6]); 5.13 µM in test [3] (CCR6, run 2, dose range 1); 6.05 µM in test [4] (CXCR6, dose range 1); 7.41 µM in test [4] (setting [7]); 8.06 µM in test [4] (CXCR6, run 1, dose range 2). Also, the IC50 in test [4] (CXCR6, run 2, dose range 1) was 6.38 µM; in test [4] (CXCR6, run 2, dose range 2) it was 9.16 µM.
Consider `Cc1cc(S(=O)(=O)c2ccc(Cl)cc2)nc(S(=O)(=O)c2ccc(Cl)cc2)c1C#N`, for which the IC50 in test [1] (dose range 1) was 22.9 µM; in test [1] (setting [5]), 37 µM; in test [1] (run 2, dose range 1), 31.3 µM; in test [1] (run 3, dose range 1) it was 56.9 µM; in test [2] (setting [5]) it was 50.1 µM; in test [3] (setting [6]), 30.5 µM. Also, the half-inhibitory concentration (IC50) in test [3] (CCR6, run 2, dose range 1) is 30.5 µM; in test [4] (setting [7]) it was 18.3 µM; in test [4] (CXCR6, run 2, dose range 1), 8.04 µM. The IC50 entry is “inactive” in test [2] (dose range 1) and “inactive” in test [4] (CXCR6, dose range 1). In addition, in test [4], the inhibition stood at 93.1%.
Turning to `COc1ccc(NC(=O)/C(Cl)=C(/Cl)S(=O)Cc2ccccc2)cn1` (configuration not stated), the concentration for half-maximal inhibition (IC50) in test [1] (dose range 1) was 10.7 µM; in test [1] (setting [5]) it was 22.5 µM; in test [1] (run 2, dose range 1) it was 7.69 µM; in test [1] (run 3, dose range 1), 49 µM; in test [2] (dose range 1), > 80 µM (inactive); in test [2] (setting [5]) it was more than 80 µM. In addition, the IC50 is 5.44 µM in test [3] (CCR6, dose range 1); 5.05 µM in test [3] (setting [6]); 4.67 µM in test [3] (CCR6, run 2, dose range 1); 6.13 µM in test [4] (CXCR6, dose range 1); 6.54 µM in test [4] (setting [7]); 6.75 µM in test [4] (CXCR6, run 1, dose range 2). The IC50 in test [4] (CXCR6, run 2, dose range 1) turned out to be 6.11 µM; in test [4] (CXCR6, run 2, dose range 2) it was 7.15 µM.
Regarding `CC(=O)Nc1ccc(NCC(=O)c2ccccc2)cc1`, the IC50 in test [1] (setting [5]) was 26.2 µM; in test [1] (run 2, dose range 1) it was 24.9 µM; in test [1] (run 3, dose range 1), 27.5 µM; in test [2] (setting [5]), 58.9 µM; in test [3] (CCR6, dose range 1), 28.9 µM; in test [3] (setting [6]) it was 26.3 µM. Besides, the 50% inhibitory concentration (IC50) in test [3] (CCR6, run 2, dose range 1) is 23.7 µM; in test [4] (setting [7]) it was 23.7 µM; in test [4] (CXCR6, run 2, dose range 1) it was 21.9 µM. Moreover, the IC50 entry in test [2] (dose range 1) was “inactive”; in test [4] (CXCR6, dose range 1) it was “inactive”. This molecule also had an inhibition in test [4] of 62%.
On to `COc1cc(/C=C/c2ccc3cccc(O)c3n2)cc(OC)c1OC`, for which the IC50 in test [1] (dose range 1) was 4.36 µM; in test [1] (setting [5]) it was 5.15 µM; in test [1] (run 2, dose range 1) it was 4.59 µM; in test [1] (run 3, dose range 1), 6.51 µM; in test [2] (dose range 1) it was > 80 µM (inactive); in test [2] (setting [5]) it was more than 80 µM. Further, the half-maximal inhibitory concentration (IC50) was 3.45 µM in test [3] (CCR6, dose range 1); 4.03 µM in test [3] (setting [6]); 4.62 µM in test [3] (CCR6, run 2, dose range 1); 3.23 µM in test [4] (CXCR6, dose range 1); 3.7 µM in test [4] (setting [7]); 3.35 µM in test [4] (CXCR6, run 1, dose range 2). In addition, the half-inhibitory concentration (IC50) came out at 4.11 µM in test [4] (CXCR6, run 2, dose range 1) and 4.09 µM in test [4] (CXCR6, run 2, dose range 2).
On to `O=C1c2ccccc2C(=O)N1OS(=O)(=O)c1ccc(F)cc1`, for which the IC50 in test [1] (dose range 1) is 20 µM; in test [1] (setting [5]), 22 µM; in test [1] (run 2, dose range 1) it was 26.8 µM; in test [1] (run 3, dose range 1) it was 19.4 µM; in test [2] (dose range 1) it was > 80 µM (inactive); in test [2] (setting [5]), more than 80 µM. The IC50 is 17.7 µM in test [3] (CCR6, dose range 1); 34.6 µM in test [3] (setting [6]); 51.5 µM in test [3] (CCR6, run 2, dose range 1); > 80 µM (inactive) in test [4] (CXCR6, dose range 1); more than 80 µM in test [4] (setting [7]); more than 80 µM in test [4] (CXCR6, run 2, dose range 1). This molecule also registered an inhibition in test [4] of 69.8%.
